{
  "source": "BindingDB's records for doi:10.1021/jm020056z",
  "about": "(University of Newcastle, 2002)",
  "key": {"[1]": {"target": "T1, Cyclin-A2 [171-432]/Cyclin-dependent kinase 2 (Homo sapiens, UniProt P24941)", "T1 construct": "171-432", "assay": "Kinase Inhibition Assay"}, "[2]": {"target": "Cyclin-dependent kinase 1/G2/mitotic-specific cyclin-B (Marthasterias glacialis, UniProt P15206+Q9DGD3)", "sequence (Q9DGD3 whole entry)": "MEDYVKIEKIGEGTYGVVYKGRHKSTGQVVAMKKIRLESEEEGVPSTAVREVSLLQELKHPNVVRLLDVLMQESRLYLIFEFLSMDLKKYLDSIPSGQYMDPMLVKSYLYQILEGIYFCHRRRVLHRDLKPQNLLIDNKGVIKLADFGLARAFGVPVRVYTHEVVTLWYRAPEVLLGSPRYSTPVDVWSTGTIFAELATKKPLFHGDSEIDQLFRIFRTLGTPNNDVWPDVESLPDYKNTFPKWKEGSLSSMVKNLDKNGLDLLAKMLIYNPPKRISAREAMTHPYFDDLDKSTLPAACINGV", "sequence (P15206 whole entry)": "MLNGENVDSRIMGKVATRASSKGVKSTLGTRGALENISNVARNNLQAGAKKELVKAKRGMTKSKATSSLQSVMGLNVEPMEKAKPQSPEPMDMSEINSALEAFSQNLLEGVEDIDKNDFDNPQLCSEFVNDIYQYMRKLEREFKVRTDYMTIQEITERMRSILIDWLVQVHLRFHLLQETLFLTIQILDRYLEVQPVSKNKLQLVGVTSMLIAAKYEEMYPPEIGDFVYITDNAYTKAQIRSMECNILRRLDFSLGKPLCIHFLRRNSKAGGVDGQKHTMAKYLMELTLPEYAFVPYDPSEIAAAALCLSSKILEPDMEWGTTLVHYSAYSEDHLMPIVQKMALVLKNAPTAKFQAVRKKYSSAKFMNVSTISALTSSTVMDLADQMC", "assay": "Kinase Inhibition Assay"}},
  "note": "pIC50: −log10 of the molar value.",
  "data": [
    {"smiles": "Nc1nc(OCC2CC=CCC2)c2[nH]cnc2n1", "note": "(stereo not drawn)", "values": [
      {"measurement": "pIC50", "setting": "[1]", "value": 4.80}
    ]},
    {"smiles": "CCOC(C)(COc1nc(N)nc2[nH]cnc12)OCC", "values": [
      {"measurement": "pIC50", "setting": "[1]", "value": 4.48},
      {"measurement": "pIC50", "setting": "[2]", "value": 4.44}
    ]}
  ]
}
